Data set [1] can be described thus: Metabolic stability in liver microsomes (NADPH). The note with it: for The in vitro intrinsic clearance in liver microsomes (CLint, in vitro, µL/min/mg protein) Human: 0.5 mg/mL liver microsomes, NADPH, 37°C.
Data set [2] can be described thus: Metabolic stability in liver microsomes (NADPH). The note with it: for The in vitro intrinsic clearance in liver microsomes (CLint, in vitro, µL/min/mg protein) Rat: 0.5 mg/mL liver microsomes, NADPH, 37°C. Background: Liver microsomes are vesicles of endoplasmic reticulum, rich in cytochrome P450 enzymes.
In a further data set the test system is SW620. The experiment in a line: Cell proliferation experiment (CellTiter-Glo). It is filed as cell-based. The note with it: read-out: IC50(nM) SW620. Background: In ATP-based viability assays light output follows the ATP content of the culture.
Data set [3] in a line: Metabolic stability in liver microsomes (NADPH). The note with it: for The in vitro intrinsic clearance in liver microsomes (CLint, in vitro, µL/min/mg protein) Mouse: 0.5 mg/mL liver microsomes, NADPH, 37°C.
For a further data set, the system named is AGS. The data set can be described thus: Cell proliferation experiment (CellTiter-Glo). It is filed as cell-based. The note with it: read-out: IC50(nM) AGS.
Data set [4] can be described thus: Metabolic stability in liver microsomes (NADPH). The note with it: for The in vitro intrinsic clearance in liver microsomes (CLint, in vitro, µL/min/mg protein) Dog: 0.5 mg/mL liver microsomes, NADPH, 37°C.
A short description of data set [5]: in vitro. The note with it: dog, microsomes.
Data set [6] can be described thus: in vitro. The note with it: human, microsomes.
Data set [7] can be described thus: Phase II metabolic stability in liver microsomes (UDPGA). It is filed as in vitro ADME, Human. The note with it: for 60 minutes remaining percentage % Human: 0.5 mg/mL liver microsomes, Alamethicin; for metabolism by UGT in human liver microsomes: 60 min. The procedure: (§1) Example 6 Study on Phase II Metabolic Stability of Compounds in Human, Rat, Mouse, and Dog Liver Microsomes
(§2) Experimental Method: A diluted solution containing 0.5 mg/mL liver microsomes with K-buffer and MgCl2 was prepared: Table 8
(§3) 358 µL of the diluted liver microsome solution prepared in Table 8 above was added to the pre-set wells of the incubation plate, labeled as the incubation plate. 2 µL of compound working solution (400 µM) (final concentration of DMSO ≤ 0.5%) was added. The incubation plate was placed in a 37°C constant temperature shaker and pre-incubated for 5-10 min. Then, 40 µL of UDPGA (20 mM) was added to the incubation plate to initiate the reaction, and timing started. At each predetermined time point (0, 5, 15, 60 min), 50 µL of samples were taken from the incubation plate and added to the precipitation plate containing 200 µL of internal standard. Samples were mixed thoroughly, centrifuged at 4°C and 5000 rpm for 10 minutes. The supernatant after centrifugation was added to pre-added ultrapure water at an appropriate ratio, mixed thoroughly on a shaker at room temperature, and subjected to LC-MS/MS analysis.
(§4) Data processing: The peak areas of the analyte and the internal standard in samples were measured at different time points. The peak area ratio of the analyte to the internal standard at non-zero time points compared to the peak area ratio of the analyte to the internal standard in the 0 min sample was used to calculate the remaining percentage of the parent drug.

Experiment in data set [8]: as above
It counts as in vitro ADME. The note with it: 0.5 mg/mL liver microsomes, Alamethicin. The method, then: as §1, §2, §3, §4

The target in data set [9] is T1, KRAS G12D (Homo sapiens, UniProt P01116, G12D). The data set can be described thus: cell-based. The note with it: AGS.
A short description of data set [10]: in vitro. The note with it: mouse, microsomes.
Data set [11] is described as follows: in vitro. The note with it: rat, microsomes.
In data set [12] the target is T1, KRAS G12D.
A further data set relates to H358. The data set can be described thus: Cell proliferation experiment (CellTiter-Glo). It counts as cell-based. The note with it: Homo sapiens, NCI-H358; H358, KRAS mutation type G12C; 96 h incubation.
A short description of data set [13]: PK study in ICR mice (whole blood). It counts as in vivo. The note with it: Female ICR mice, IV 1 mg/kg. The method, then:
Example 8 PK Study of Compound in ICR Mice (whole blood)
The compound was mixed with the vehicle (10% DMSO / 5% Solutol HS 15 / 85% saline), vortexed, and sonicated to prepare a clear solution at 0.2 mg/mL. Female ICR mice aged 6 to 7 weeks (non-fasted) were intravenously administered the compound. Whole blood was collected at specified time points. Drug concentration was analyzed by LC-MS/MS, and pharmacokinetic parameters were calculated using Phoenix WinNonlin software (Pharsight Corporation, USA). Table 11 Mouse PK Data for Intravenous Compound Monotherapy

Read-outs that look alike come from different tables or passages of the source.

For “((7-(8-ethyl-7-fluoro-3-hydroxynaphthalen-1-yl)-8-fluoro-4-(R)-3-hydroxy-3-methylpiperidin-1-yl)pyrido[4,3-d]pyrimidin-2-yl)oxy)methyl)-6-methylenehexahydro-1H-pyrrolizin-3-yl)methyl 2-(1-(S)-1-(2S,4R)-4-hydroxy-2-(S)-1-(4-(4-methylthiazol-5-yl)phenyl)ethylcarbamoyl)pyrrolidi n-1-yl)-3-methyl-1-oxobutan-2-yl)-1H-1,2,3-triazol-4-yl)-7-azaspiro[3.5]nonane-7-carboxylate [Compound 127]”, the “The in vitro intrinsic clearance in liver microsomes (CLint, in vitro, µL/min/mg protein) Human” value in data set [1] was 52.8 µL/min/mg protein. Also, the “The in vitro intrinsic clearance in liver microsomes (CLint, in vitro, µL/min/mg protein) Rat” value in data set [2] is 15.6 µL/min/mg protein. The IC50 (usually the concentration that inhibits the measured activity by half) in the data set with SW620 came out at 223 nM; in the data set with AGS, 47 nM. Also, the “The in vitro intrinsic clearance in liver microsomes (CLint, in vitro, µL/min/mg protein) Mouse” value in data set [3] is 42.4 µL/min/mg protein. Moreover, the “The in vitro intrinsic clearance in liver microsomes (CLint, in vitro, µL/min/mg protein) Dog” value in [4] was found to be 31.5 µL/min/mg protein.

Regarding `C=C1CN2[C@H](COCc3ccc(-c4cn([C@H](C(=O)N5C[C@H](O)C[C@H]5C(=O)N[C@@H](C)c5ccc(-c6scnc6C)cc5)C(C)C)nn4)cc3)CC[C@@]2(COc2nc(N3CCC[C@@](C)(O)C3)c3cnc(-c4cc(O)cc5ccc(F)c(CC)c45)c(F)c3n2)C1` [Compound 122], the microsomal CLint – broadly, the rate of metabolic loss divided by the concentration – in “in vitro [5]” amounted to 53 µL/min/mg; in “in vitro [6]”, 46.4 µL/min/mg; in “in vitro [10]”, 24.8 µL/min/mg; in “in vitro [11]” it was 8.5 µL/min/mg. Besides, the “60 minutes remaining percentage % Human” value in data set [7] was 76.9%. The half-maximal inhibitory concentration (IC50) came to 87 nM in the data set on SW620 (Homo sapiens, SW-620, 96 h) and 28 nM in the data set on AGS (Homo sapiens, AGS, 96 h). The “60 minutes remaining percentage % Dog” value in data set [8] is listed as 99.4%. The “60 minutes remaining percentage % Mouse” value in data set [8] stood at 105%. In addition, the “60 minutes remaining percentage % Rat” value in [8] came out at 96.5%. Besides, on KRAS G12D [9], the Dmax was 95%. The DC50 on KRAS G12D [12] is 22 nM.

For `C=C1CN2[C@H](COC(=O)N3CCC(Cc4cn([C@H](C(=O)N5C[C@H](O)C[C@H]5C(=O)N[C@@H](C)c5ccc(-c6scnc6C)cc5)C(C)C)nn4)CC3)CC[C@@]2(COc2nc(N3CCC[C@@](C)(O)C3)c3cnc(-c4cc(O)cc5ccc(F)c(CC)c45)c(F)c3n2)C1` [Compound 141, ((3S,7aS)-7a-(((7-(8-ethyl-7-fluoro-3-hydroxynaphthalen-1-yl)-8-fluoro-4-((R)-3-hydroxy-3-methylpiperidin-1-yl)pyrido[4,3-d]pyrimidin-2-yl)oxy)methyl)-6-methylenehexahydro-1H-pyrrolizin-3-yl)methyl 4-((1-((S)-1-((2S,4R)-4-hydroxy-2-(((S)-1-(4-(4-methylthiazol-5-yl)phenyl)ethyl)carbamoyl)pyrrolidin-1-yl)-3-methyl-1-oxobutan-2-yl)-1H-1,2,3-triazol-4-yl)methyl)piperidine-1-carboxylate], the microsomal CLint at 1 µM in [1] (human, liver microsomes) amounted to 21.2 µL/min/mg; in data set [2] (rat, liver microsomes), 3.9 µL/min/mg; in data set [3] (mouse, liver microsomes), 12.1 µL/min/mg; in data set [4] (dog, liver microsomes), 12.9 µL/min/mg. For the same compound, the IC50 came out at 250 nM with SW620 (Homo sapiens, SW-620, 96 h) and 31 nM in the data set with AGS (Homo sapiens, AGS, 96 h).

`CCc1c(F)ccc2cc(O)cc(-c3ncc4c(N5CCC[C@@](C)(O)C5)nc(OCC5(CN6CCC(COc7ccc(-c8cn([C@H](C(=O)N9C[C@H](O)C[C@H]9C(=O)N[C@@H](C)c9ccc(-c%10scnc%10C)cc9)C(C)C)nn8)cc7)CC6)CC5)nc4c3F)c12` [Compound 69]: the microsomal CLint came out at 16.4 µL/min/mg in “in vitro [5]”, 9.8 µL/min/mg in “in vitro [6]”, 7.9 µL/min/mg in the data set “in vitro [10]” and 4.6 µL/min/mg in “in vitro [11]”. Further, the “60 minutes remaining percentage % Human” value in data set [7] was 98.4%. Moreover, the “metabolism by UGT in human liver microsomes” value in data set [7] was “not metabolized or are minimally metabolized”. Besides, the IC50 in the data set on H358 came to 42 nM; with SW620 (Homo sapiens, SW-620, 96 h) it was 34 nM; in the data set on AGS (Homo sapiens, AGS, 96 h) it was 14 nM. For the same compound, the “60 minutes remaining percentage % Dog” value in [8] is recorded as 90.6%. The “60 minutes remaining percentage % Mouse” value in [8] was 92%. In data set [8], the “60 minutes remaining percentage % Rat” value is 99%. The compound further returned a Dmax on KRAS G12D [9] of 95%. For the same compound, on KRAS G12D [12], the DC50 was 25 nM.

For “(2S,4R)-1-((S)-2-(5-(((3S,7aS)-7a-(((7-(8-ethyl-7-fluoro-3-hydroxynaphthalen-1-yl)-8-fluoro-4-( (R)-3-hydroxy-3-methylpiperidin-1-yl)pyrido[4,3-d]pyrimidin-2-yl)oxy)methyl)-6-methylenehex ahydro-1H-pyrrolidin-3-yl)methoxy)methyl)-1H-1,2,3-triazol-1-yl)-3-methylbutanoyl)-4-hydrox y-N-(((S)-1-(4-(4-methylthiazol-5-yl)phenyl)ethyl)pyrrolidine-2-carboxamide [Compound 120]”, the “The in vitro intrinsic clearance in liver microsomes (CLint, in vitro, µL/min/mg protein) Human” value in data set [1] is listed as 128 µL/min/mg protein. In addition, the “The in vitro intrinsic clearance in liver microsomes (CLint, in vitro, µL/min/mg protein) Rat” value in [2] amounted to 9.3 µL/min/mg protein. Further, in the data set with SW620, the IC50 came to 102 nM. Further, the “The in vitro intrinsic clearance in liver microsomes (CLint, in vitro, µL/min/mg protein) Mouse” value in [3] is reported as 48.5 µL/min/mg protein. In addition, the IC50 in the data set on AGS turned out to be 12 nM. Also, the “The in vitro intrinsic clearance in liver microsomes (CLint, in vitro, µL/min/mg protein) Dog” value in data set [4] was determined as 113 µL/min/mg protein. On KRAS G12D [12], the DC50 worked out at 11 nM and the “Dmax (%)” value was determined as 95%.

On to `CCc1c(F)ccc2cc(O)cc(-c3ncc4c(N5CCC[C@@](C)(O)C5)nc(OCC5(CN6CCC7(CC6)CC(c6cn([C@H](C(=O)N8C[C@H](O)C[C@H]8C(=O)N[C@@H](C)c8ccc(-c9scnc9C)cc8)C(C)C)nn6)C7)CC5)nc4c3F)c12` [Compound 71], for which the microsomal CLint in the data set “in vitro [5]” stood at 6.5 µL/min/mg; in the data set “in vitro [6]”, 5.9 µL/min/mg; in the data set “in vitro [10]”, 9.8 µL/min/mg; in the data set “in vitro [11]” it was 1.1 µL/min/mg. Moreover, in [7], the “60 minutes remaining percentage % Human” value stood at 94.6%. Besides, in [7], the “metabolism by UGT in human liver microsomes” value was “not metabolized or are minimally metabolized”. Moreover, in data set [13], the “Cl_obs” value is 16.3 mL/min/kg. Moreover, the “Vss_obs” value in data set [13] was found to be 1.45 L/kg. Besides, in [13] (mouse), the AUC(0-t) (as a rule, the area under the concentration-time curve up to a stated or last time point) worked out at 1030 ng·h/mL. Moreover, in data set [13] (mouse), the half-life (commonly how long it takes for the measured level to halve) was 6.08 h. The C0 in data set [13] (mouse, read-out: C0) came to 5560 ng/mL. For the same compound, the IC50 turned out to be 39 nM in the data set with H358; 85 nM in the data set with SW620 (Homo sapiens, SW-620, 96 h); 18 nM in the data set on AGS (Homo sapiens, AGS, 96 h). Besides, in data set [8], the “60 minutes remaining percentage % Dog” value was 108%. Further, the “60 minutes remaining percentage % Mouse” value in data set [8] was determined as 93%. Besides, the “60 minutes remaining percentage % Rat” value in [8] is given as 75.4%. The compound also yielded a Dmax at KRAS G12D [9] of 95%. For the same compound, the DC50 on KRAS G12D [12] worked out at 20 nM.

For the origin of these results see EP4631940A1, “COMPOUND TARGETING PAN-KRAS PROTEIN DEGRADATION AGENT AND USE THEREOF” (Betta Pharmaceuticals Co., Ltd., priority 2022, dated 2024).
